This experiment has as its target human fatty acid synthase FASN (Homo sapiens (Human), UniProt P49327). Nature of the experiment: Biochemical activity testing of human fatty acid synthase FASN (NADPH fluorescence intensity enzyme assay). The following applies: human recombinant full-length fatty acid synthase. An excerpt: Biochemical activity testing of human fatty acid synthase FASN
Fatty acid synthase FASN is a multifunctional enzyme with seven catalytic activities thereby synthesising long chain fatty acids especially palmitoyl-CoA in the presence of co-factor NADPH starting from the substrates acetyl-CoA and malonyl-CoA. The reductive synthesis is realized by the oxidation of NADPH to NADP. Since NADPH has a high fluorescence intensity quantum yield compared to NADP with excitation at 340 nm and emission at 460 nm, the reaction can be monitored via the decrease in fluorescence intensity. The biochemical FASN activity testing was performed as 384 well two-time-point kinetic fluorescence intensity assay format in Greiner low volume medium binding 384-well black microtiter plates in a total assay volume of 8 μl and was used for high throughput screen. In each well 3 μl 40 nM human recombinant full-length fatty acid synthase (produced in-house in SF9 cells) were dispensed in the following assay buffer: 50 mM potassium phosphate buffer pH 7.0, 0.005% (w/v) BSA, 2 mM Glutathione, 0.02% Tween-20. Then 2 μl of 200 μM NADPH in assay buffer were added, followed by the addition of the test compounds in 10 dilution concentrations starting with 30 μM (final concentration) to get a final DMSO content of 1% (v/v). The mixture was incubated for at least 15 min at room temperature. After the pre-incubation the enzymatic reaction was started by the addition of 2 μl substrate solution (80 μM acetyl-CoA, 240 μM malonyl-CoA). A first fluorescence intensity measurement (time point one) was performed with an Envision multimode reader (Perkin Elmer LAS Germany GmbH) at excitation wavelength 340 nm (lamp mode) and emission wavelength 460 nm. The reaction was incubated for 30 minutes at room temperature. After this the fluorescence intensity was measured again in the Envision using the same parameters as described above (second time point measurement). The data were analysed by subtracting the first time point measurement value from the second time point measurement value (after the enzymatic reaction). The differences of the emission signals were determined. These reflect directly the conversion rate of NADPH. The full value used was the inhibitor-free reaction. A pharmacological zero value was used like GSK837149A (Sigma-Aldrich) in a final concentration of 5-10 μM. The inhibitory values (IC50) were determined using either the program Symyx Assay Explorer® or Condosseo® from GeneData.

The pIC50 is the IC50 on a negative log10 scale, so that one unit is a factor of ten.

Each structure is given as a SMILES string. pIC50: −log10 of the molar value.

human fatty acid synthase FASN, sequence (P49327 whole entry): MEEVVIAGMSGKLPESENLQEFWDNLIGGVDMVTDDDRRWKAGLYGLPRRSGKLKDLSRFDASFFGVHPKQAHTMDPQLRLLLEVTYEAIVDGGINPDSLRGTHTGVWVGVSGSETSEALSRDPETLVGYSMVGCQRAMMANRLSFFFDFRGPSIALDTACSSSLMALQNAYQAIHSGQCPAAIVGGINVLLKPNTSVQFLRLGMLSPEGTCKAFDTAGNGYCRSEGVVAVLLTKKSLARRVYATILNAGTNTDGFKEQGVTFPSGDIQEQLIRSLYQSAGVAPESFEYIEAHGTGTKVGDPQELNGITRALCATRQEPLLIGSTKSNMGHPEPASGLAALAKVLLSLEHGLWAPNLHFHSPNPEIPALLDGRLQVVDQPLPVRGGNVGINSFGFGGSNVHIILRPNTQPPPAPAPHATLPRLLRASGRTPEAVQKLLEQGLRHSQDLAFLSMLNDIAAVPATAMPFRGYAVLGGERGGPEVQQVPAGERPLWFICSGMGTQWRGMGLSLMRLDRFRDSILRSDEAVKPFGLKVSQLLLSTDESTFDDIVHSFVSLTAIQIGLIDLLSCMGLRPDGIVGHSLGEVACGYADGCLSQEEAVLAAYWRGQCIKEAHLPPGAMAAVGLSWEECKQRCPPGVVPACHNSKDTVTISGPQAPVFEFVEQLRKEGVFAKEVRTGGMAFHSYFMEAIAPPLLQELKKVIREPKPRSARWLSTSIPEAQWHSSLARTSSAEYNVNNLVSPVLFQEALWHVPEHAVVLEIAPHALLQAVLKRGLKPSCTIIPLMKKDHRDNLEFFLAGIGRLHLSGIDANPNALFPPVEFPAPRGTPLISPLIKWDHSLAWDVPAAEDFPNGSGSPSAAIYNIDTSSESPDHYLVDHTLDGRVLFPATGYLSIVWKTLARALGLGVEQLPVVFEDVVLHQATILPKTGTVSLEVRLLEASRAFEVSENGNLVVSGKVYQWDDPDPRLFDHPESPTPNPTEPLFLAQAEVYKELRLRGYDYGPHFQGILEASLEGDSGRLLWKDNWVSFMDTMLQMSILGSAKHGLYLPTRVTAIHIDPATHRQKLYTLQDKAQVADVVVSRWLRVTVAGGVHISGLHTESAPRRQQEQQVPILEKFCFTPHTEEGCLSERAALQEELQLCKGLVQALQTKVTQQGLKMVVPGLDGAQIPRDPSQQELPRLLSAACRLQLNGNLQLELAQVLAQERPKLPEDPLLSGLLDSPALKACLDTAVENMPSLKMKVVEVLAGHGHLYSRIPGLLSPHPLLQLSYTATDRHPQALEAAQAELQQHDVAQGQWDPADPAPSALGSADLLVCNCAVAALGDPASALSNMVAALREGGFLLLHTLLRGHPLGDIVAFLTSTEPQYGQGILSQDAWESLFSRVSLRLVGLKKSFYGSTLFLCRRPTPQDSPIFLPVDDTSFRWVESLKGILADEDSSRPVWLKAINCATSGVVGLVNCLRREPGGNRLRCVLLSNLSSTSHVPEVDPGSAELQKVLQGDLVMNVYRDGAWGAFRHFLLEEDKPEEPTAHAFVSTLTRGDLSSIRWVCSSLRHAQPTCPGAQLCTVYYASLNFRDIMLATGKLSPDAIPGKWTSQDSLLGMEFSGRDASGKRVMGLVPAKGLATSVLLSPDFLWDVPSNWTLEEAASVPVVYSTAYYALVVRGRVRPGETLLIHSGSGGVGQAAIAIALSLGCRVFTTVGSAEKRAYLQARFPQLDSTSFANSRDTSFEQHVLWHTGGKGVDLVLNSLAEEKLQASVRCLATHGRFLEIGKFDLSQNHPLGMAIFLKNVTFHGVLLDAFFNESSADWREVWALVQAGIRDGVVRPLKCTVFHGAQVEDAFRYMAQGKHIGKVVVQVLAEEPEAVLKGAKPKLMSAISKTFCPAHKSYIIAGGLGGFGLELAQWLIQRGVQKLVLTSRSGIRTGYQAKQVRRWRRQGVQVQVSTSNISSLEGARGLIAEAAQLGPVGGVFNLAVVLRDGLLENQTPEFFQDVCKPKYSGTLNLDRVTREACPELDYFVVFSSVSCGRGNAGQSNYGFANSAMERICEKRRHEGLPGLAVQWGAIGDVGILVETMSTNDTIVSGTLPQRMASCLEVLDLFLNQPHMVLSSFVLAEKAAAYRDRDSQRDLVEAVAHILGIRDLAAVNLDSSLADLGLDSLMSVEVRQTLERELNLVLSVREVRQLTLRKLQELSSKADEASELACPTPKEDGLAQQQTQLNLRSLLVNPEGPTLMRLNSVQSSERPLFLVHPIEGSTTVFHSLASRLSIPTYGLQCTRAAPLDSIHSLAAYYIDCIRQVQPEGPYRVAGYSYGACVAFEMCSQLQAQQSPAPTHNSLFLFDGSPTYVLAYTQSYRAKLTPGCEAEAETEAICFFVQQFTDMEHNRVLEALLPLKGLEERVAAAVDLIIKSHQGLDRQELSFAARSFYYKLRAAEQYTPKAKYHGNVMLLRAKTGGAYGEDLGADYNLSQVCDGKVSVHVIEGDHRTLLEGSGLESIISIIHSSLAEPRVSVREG

On to `CCC(=O)N[C@H]1CC[C@@H](N(C)C(=O)c2ccc(-c3ccc4[nH]ccc4c3C)nn2)C1` [Compound A150, 6-(4-methyl-1H-indol-5-yl)-pyridazine-3-carboxylic acid methyl-((1R,3S)-3-propionylamino-cyclopentyl)-amide], for which the pIC50 was above 6.52.

For `CCC(=O)N[C@H]1CC[C@@H](N(C)C(=O)c2ccc(-c3ccc4[nH]nnc4c3)cc2)C1` [Compound A91, 4-(1H-benzotriazol-5-yl)-N-methyl-N-((1R,3S)-3-propionylamino-cyclopentyl)-benzamide], the pIC50 is above 6.52.

Take `CCC(=O)N[C@H]1CC[C@@H](N(C)C(=O)c2ncc(-c3nc4ccc(Cl)cc4o3)cn2)C1` [Compound A156, 5-(6-chloro-benzoxazol-2-yl)-pyrimidine-2-carboxylic acid methyl-((1R,3S)-3-propionylamino-cyclopentyl)-amide]: the pIC50 was 4.30 to 5.52.

Turning to `CN(C(=O)c1ccc(-c2nc3ccccc3o2)cc1)[C@@H]1CC[C@H](NC(=O)C(F)(F)C(F)(F)F)C1` [Compound A25, 4-benzoxazol-2-yl-N-methyl-N-[(1R,3S)-3-(2,2,3,3,3-pentafluoro-propionylamino)-cyclopentyl]-benzamide], the negative logarithm of the IC50 (pIC50) was 5.52 to 6.52.

On to `CCC(=O)N[C@H]1CC[C@@H](N(C)C(=O)c2cnc(-c3cc(F)c4[nH]ccc4c3)c(F)c2)C1` [Compound A142, 5-fluoro-6-(7-fluoro-1H-indol-5-yl)-N-methyl-N-((1R,3S)-3-propionylamino-cyclopentyl)-nicotinamide], for which the pIC50 was 5.52 to 6.52.

Take `CCC(=O)N[C@H]1CC[C@@H](N(C)C(=O)c2cnc(-c3nc4ccc(Cl)cc4o3)cn2)C1` [Compound A148, 5-(6-chloro-benzoxazol-2-yl)-pyrazine-2-carboxylic acid methyl-((1R,3S)-3-propionylamino-cyclopentyl)-amide]: the pIC50 was 5.52 to 6.52.

Consider `CCC(=O)N[C@H]1CC[C@@H](N(C)C(=O)c2ccc(-c3ccc4c(c3)c(CN)cn4C)cc2)C1` [Compound A152, 4-(3-aminomethyl-1-methyl-1H-indol-5-yl)-N-methyl-N-((1R,3S)-3-propionylamino-cyclopentyl)-benzamide], for which the pIC50 is above 6.52.

On to `CC(C)CC(=O)N[C@H]1CC[C@@H](N(C)C(=O)c2ccc(-c3nc4ccccc4o3)cc2)C1` [Compound A35, 4-benzoxazol-2-yl-N-methyl-N-[(1R,3S)-3-(3-methyl-butyrylamino)-cyclopentyl]-benzamide], for which the negative-log IC50 (pIC50) was above 6.52.

With `CC(C)CCC(=O)N[C@H]1CC[C@@H](N(C)C(=O)c2ccc(-c3nc4ccccc4o3)cc2)C1` [Compound A19, 4-benzoxazol-2-yl-N-methyl-N-[(1R,3S)-3-(4-methyl-pentanoylamino)-cyclopentyl]-benzamide], the pIC50 is above 6.52.

For the molecule `CCC(=O)N[C@H]1CC[C@@H](N(C)C(=O)c2ccc(-c3ccc4cc[nH]c4c3F)nc2)C1` [Compound A157, 6-(7-fluoro-1H-indol-6-yl)-N-methyl-N-((1R,3S)-3-propionylamino-cyclopentyl)-nicotinamide], the negative logarithm of the IC50 (pIC50) was above 6.52.

As for `CCC(=O)N[C@H]1CC[C@@H](N(C)C(=O)c2ccc(-c3ccc(C#N)c(F)c3)cc2)C1` [Compound A71, 4′-cyano-3′-fluoro-biphenyl-4-carboxylic acid methyl-((1R,3S)-3-propionylamino-cyclopentyl)-amide], the pIC50 was above 6.52.

For `CCC(=O)N[C@H]1CC[C@@H](N(C)C(=O)c2ccc(-c3ccc(OC)cc3F)cc2)C1` [Compound A99, 2′-fluoro-4′-methoxy-biphenyl-4-carboxylic acid methyl-((1R,3S)-3-propionylamino-cyclopentyl)-amide], the pIC50 is above 6.52.

For `CCC(=O)N[C@H]1CC[C@@H](N(C)C(=O)c2ccc(-c3ncc[nH]3)cc2)C1` [Compound A11, 4-(1H-imidazol-2-yl)-N-methyl-N-((1R,3S)-3-propionylamino-cyclopentyl)-benzamide], the pIC50 is 4.30 to 5.52.

With `CCC(=O)N[C@H]1CC[C@@H](N(C)C(=O)c2ccc(-c3ccc4[nH]ccc4c3)cc2F)C1` [Compound A106, 2-fluoro-4-(1H-indol-5-yl)-N-methyl-N-((1R,3S)-3-propionylamino-cyclopentyl)-benzamide], the pIC50 was above 6.52.

On to `CC(=O)N[C@@H](C)C(=O)N[C@H]1CC[C@@H](N(C)C(=O)c2ccc(-c3nc4ccccc4o3)cc2)C1` [Compound A47, N-[(1R,3S)-3-((S)-2-acetylamino-propionylamino)-cyclopentyl]-4-benzoxazol-2-yl-N-methyl-benzamide], for which the pIC50 is 4.30 to 5.52.

For `CCC(=O)N[C@H]1CC[C@@H](N(C)C(=O)c2ccc(-c3cc(F)c4[nH]ccc4c3)cc2)C1` [Compound A121, 4-(7-fluoro-1H-indol-5-yl)-N-methyl-N-((1R,3S)-3-propionylamino-cyclopentyl)-benzamide], the negative-log IC50 (pIC50) was above 6.52.

Turning to `CCC(=O)N[C@H]1CC[C@@H](N(C)C(=O)c2ccc(-c3ccc4c(ccn4C)c3)cc2C)C1` [Compound A119, 2,N-dimethyl-4-(1-methyl-1H-indol-5-yl)-N-((1R,3S)-3-propionylamino-cyclopentyl)-benzamide], the pIC50 was above 6.52.

With `CN(C(=O)c1ccc(-c2nc3ccccc3o2)cc1)[C@@H]1CC[C@H](NC(=O)C2CCCC2)C1` [Compound A21, 4-benzoxazol-2-yl-N-[(1R,3S)-3-(cyclopentanecarbonyl-amino)-cyclopentyl]-N-methyl-benzamide], the pIC50 is above 6.52.

Regarding `CN(C(=O)c1ccc(-c2nc3ccccc3o2)cc1)[C@@H]1CC[C@H](NC(=O)c2ccccc2)C1` [Compound A20, 4-benzoxazol-2-yl-N-((1R,3S)-3-benzoylamino-cyclopentyl)-N-methyl-benzamide], the pIC50 was 5.52 to 6.52.

As to `CC(=O)N[C@@H]1CC[C@@H](N(C)C(=O)c2ccc(-c3nc4ccccc4o3)cc2)C1` [Compound A166, N-((1R,3R)-3-acetylamino-cyclopentyl)-4-benzooxazol-2-yl-N-methyl-benzamide], the pIC50 was 4.30 to 5.52.

Take `CCC(=O)N[C@H]1CC[C@@H](N(C)C(=O)c2ccc(-c3ccc4[nH]ccc4n3)cc2)C1` [Compound A129, N-methyl-N-((1R,3S)-3-propionylamino-cyclopentyl)-4-(1H-pyrrolo[3,2-b]pyridin-5-yl)-benzamide]: the pIC50 is above 6.52.

For the molecule `CCC(=O)N[C@H]1CC[C@@H](N(C)C(=O)c2ccc(-c3ccc4[nH]ncc4c3)cc2)C1` [Compound A84, 4-(1H-indazol-5-yl)-N-methyl-N-((1R,3S)-3-propionylamino-cyclopentyl)-benzamide], the pIC50 is above 6.52.

Turning to `CCC(=O)N[C@H]1CC[C@@H](N(C)C(=O)c2ccc(-c3ccc(F)cc3)cc2)C1` [Compound A53, 4′-fluoro-biphenyl-4-carboxylic acid methyl-((1R,3S)-3-propionylamino-cyclopentyl)-amide], the pIC50 is above 6.52.

With `CCC(=O)N[C@H]1CC[C@@H](N(C)C(=O)c2ccc(-c3cc(C)c4[nH]ncc4c3)cc2)C1` [Compound A107, N-methyl-4-(7-methyl-1H-indazol-5-yl)-N-((1R,3S)-3-propionylamino-cyclopentyl)-benzamide], the pIC50 is above 6.52.

Consider `CCC(=O)N[C@H]1CC[C@@H](N(C)C(=O)c2ccc(-c3ccc(OC)c(OC)c3)cc2)C1` [Compound A56, 3′,4′-dimethoxy-biphenyl-4-carboxylic acid methyl-((1R,3S)-3-propionylamino-cyclopentyl)-amide], for which the pIC50 was above 6.52.

Regarding `CCC(=O)N[C@H]1CC[C@@H](N(C)C(=O)c2ccc(-c3ccc4c(cnn4C)c3)cc2)C1` [Compound A75, N-methyl-4-(1-methyl-1H-indazol-5-yl)-N-((1R,3S)-3-propionylamino-cyclopentyl)-benzamide], the pIC50 is above 6.52.

With `CCC(=O)N[C@H]1CC[C@@H](N(C)C(=O)c2ccc(-c3ccc4[nH]cc(C#N)c4c3)cc2)C1` [Compound A99a, 4-(3-cyano-1H-indol-5-yl)-N-methyl-N-((1R,3S)-3-propionylamino-cyclopentyl)-benzamide], the pIC50 was above 6.52.

On to `CC[C@H](C)CC(=O)N[C@H]1CC[C@@H](N(C)C(=O)c2ccc(-c3nc4ccccc4o3)cc2)C1` [Compound A30, 4-benzoxazol-2-yl-N-methyl-N-[(1R,3S)-3-((S)-3-methyl-pentanoylamino)-cyclopentyl]-benzamide], for which the pIC50 was above 6.52.

As for `CCC(=O)N[C@H]1CC[C@@H](N(C)C(=O)c2ccc(-c3ccc4[nH]ccc4c3)c(C)c2)C1` [Compound A101, 4-(1H-indol-5-yl)-3,N-dimethyl-N-((1R,3S)-3-propionylamino-cyclopentyl)-benzamide], the pIC50 is above 6.52.
